Experimental data: PMC9719519, “Non-classical ferroptosis inhibition by a small molecule targeting PHB2” (Nature Communications, 2022)

Experiments:
Assay in all cases: biochemical
Design in all cases: Eurofins recombinant human kinase profiling, remaining kinase activity as % of control, 10 uM ATP
Details in all cases: ATP 10 uM; read-out: %Ctrl@10 μM
[1] = target: T1, IKKβ(h) (Homo sapiens, UniProt O14920)
T1 construct: gene IKBKB
Source text: (§1) To rapidly determine the biological target of YL-939, we first tested the activity of YL-939 against a panel of 401 recombinant human protein kinases by using the kinase profiling assay provided by Eurofins, since kinases are often the key components in various signal pathways[35],[36]. […] We then carried out affinity-based proteome profiling assay (ABPP) coupled with bioimaging to identify the biological target of YL-939 (Fig. 4A). To this end, we designed and synthesized a photoaffinity probe, YL-939-1 (Fig. 4A and Supplementary Fig. 5), which is YL-939 attached by a photo-crosslinker (L3) that contains a photo-reactive group diazirine and a clickable alkyne handle.

[2] = target: T2, ACK1(h) (Homo sapiens, UniProt Q07912)
T2 construct: gene TNK2
Source text: as §1

[3] = target: T3, PDHK2(h) (Homo sapiens, UniProt Q15119)
T3 construct: gene PDK2
Source text: as §1

[4] = target: T4, CaMKIγ(h) (Homo sapiens, UniProt Q96NX5)
T4 construct: gene CAMK1G
Source text: as §1

[5] = target: CDK12/cyclinK(h) (Homo sapiens, UniProt Q9NYV4)
Source text: as §1

[6] = target: T5, CK2α1(h) (Homo sapiens, UniProt P68400)
T5 construct: gene CSNK2A1
Source text: as §1

[7] = target: Plk4(h) (Homo sapiens, UniProt O00444)
Source text: as §1

[8] = target: T6, Abl(T315I)(h) (Homo sapiens, UniProt P00519, T315I)
T6 construct: gene ABL1
Source text: as §1

[9] = target: TTBK2(h) (Homo sapiens, UniProt Q6IQ55)
Source text: as §1

[10] = target: DAPK1(h) (Homo sapiens, UniProt P53355)
Source text: as §1

[11] = target: Flt3(D835Y)(h) (Homo sapiens, UniProt P36888, D835Y)
Source text: as §1

[12] = target: TBK1(h) (Homo sapiens, UniProt Q9UHD2)
Source text: as §1

[13] = target: T7, PKD3(h) (Homo sapiens, UniProt O94806)
T7 construct: gene PRKD3
Source text: as §1

[14] = target: CLK3(h) (Homo sapiens, UniProt P49761)
Source text: as §1

[15] = target: T8, PhKγ1(h) (Homo sapiens, UniProt Q16816)
T8 construct: gene PHKG1
Source text: as §1

[16] = target: ATR/ATRIP(h) (Homo sapiens, UniProt Q13535)
Source text: as §1

[17] = target: CaMKK2(h) (Homo sapiens, UniProt Q96RR4)
Source text: as §1

[18] = target: STK33(h) (Homo sapiens, UniProt Q9BYT3)
Source text: as §1

[19] = target: NEK9(h) (Homo sapiens, UniProt Q8TD19)
Source text: as §1

[20] = target: T9, Aurora-A(h) (Homo sapiens, UniProt O14965)
T9 construct: gene AURKA
Source text: as §1

[21] = target: T10, MAPKAP-K3(h) (Homo sapiens, UniProt Q16644)
T10 construct: gene MAPKAPK3
Source text: as §1

[22] = target: T11, MRCKβ(h) (Homo sapiens, UniProt Q9Y5S2)
T11 construct: gene CDC42BPB
Source text: as §1

T2 sequence (Q07912 whole entry): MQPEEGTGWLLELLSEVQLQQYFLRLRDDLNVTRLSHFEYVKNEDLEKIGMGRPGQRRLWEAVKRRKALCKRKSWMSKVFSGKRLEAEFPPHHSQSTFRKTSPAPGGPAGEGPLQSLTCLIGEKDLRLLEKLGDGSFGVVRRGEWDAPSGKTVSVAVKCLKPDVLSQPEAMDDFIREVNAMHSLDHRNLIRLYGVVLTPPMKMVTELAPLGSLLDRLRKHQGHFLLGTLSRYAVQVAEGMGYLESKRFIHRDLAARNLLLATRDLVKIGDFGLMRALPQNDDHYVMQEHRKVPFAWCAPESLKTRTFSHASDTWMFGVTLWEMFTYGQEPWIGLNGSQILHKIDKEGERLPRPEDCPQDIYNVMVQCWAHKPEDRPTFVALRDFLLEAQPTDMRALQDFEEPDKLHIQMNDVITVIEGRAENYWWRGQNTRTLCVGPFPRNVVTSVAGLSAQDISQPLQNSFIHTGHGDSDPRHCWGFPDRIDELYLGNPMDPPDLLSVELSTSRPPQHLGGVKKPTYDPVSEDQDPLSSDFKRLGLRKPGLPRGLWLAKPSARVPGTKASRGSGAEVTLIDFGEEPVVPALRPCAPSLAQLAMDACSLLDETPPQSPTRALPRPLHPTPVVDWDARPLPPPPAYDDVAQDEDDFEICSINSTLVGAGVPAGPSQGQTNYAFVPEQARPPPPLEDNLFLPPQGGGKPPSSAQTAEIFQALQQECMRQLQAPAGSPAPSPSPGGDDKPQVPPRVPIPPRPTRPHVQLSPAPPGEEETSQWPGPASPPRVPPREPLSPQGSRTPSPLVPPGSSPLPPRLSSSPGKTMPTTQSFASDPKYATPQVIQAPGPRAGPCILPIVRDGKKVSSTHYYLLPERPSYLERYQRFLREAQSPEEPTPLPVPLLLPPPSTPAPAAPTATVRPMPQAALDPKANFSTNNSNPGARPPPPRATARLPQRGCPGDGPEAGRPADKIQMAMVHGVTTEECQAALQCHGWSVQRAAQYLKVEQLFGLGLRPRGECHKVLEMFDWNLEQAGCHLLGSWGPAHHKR
Chain of DAPK1(h) (P53355 whole entry): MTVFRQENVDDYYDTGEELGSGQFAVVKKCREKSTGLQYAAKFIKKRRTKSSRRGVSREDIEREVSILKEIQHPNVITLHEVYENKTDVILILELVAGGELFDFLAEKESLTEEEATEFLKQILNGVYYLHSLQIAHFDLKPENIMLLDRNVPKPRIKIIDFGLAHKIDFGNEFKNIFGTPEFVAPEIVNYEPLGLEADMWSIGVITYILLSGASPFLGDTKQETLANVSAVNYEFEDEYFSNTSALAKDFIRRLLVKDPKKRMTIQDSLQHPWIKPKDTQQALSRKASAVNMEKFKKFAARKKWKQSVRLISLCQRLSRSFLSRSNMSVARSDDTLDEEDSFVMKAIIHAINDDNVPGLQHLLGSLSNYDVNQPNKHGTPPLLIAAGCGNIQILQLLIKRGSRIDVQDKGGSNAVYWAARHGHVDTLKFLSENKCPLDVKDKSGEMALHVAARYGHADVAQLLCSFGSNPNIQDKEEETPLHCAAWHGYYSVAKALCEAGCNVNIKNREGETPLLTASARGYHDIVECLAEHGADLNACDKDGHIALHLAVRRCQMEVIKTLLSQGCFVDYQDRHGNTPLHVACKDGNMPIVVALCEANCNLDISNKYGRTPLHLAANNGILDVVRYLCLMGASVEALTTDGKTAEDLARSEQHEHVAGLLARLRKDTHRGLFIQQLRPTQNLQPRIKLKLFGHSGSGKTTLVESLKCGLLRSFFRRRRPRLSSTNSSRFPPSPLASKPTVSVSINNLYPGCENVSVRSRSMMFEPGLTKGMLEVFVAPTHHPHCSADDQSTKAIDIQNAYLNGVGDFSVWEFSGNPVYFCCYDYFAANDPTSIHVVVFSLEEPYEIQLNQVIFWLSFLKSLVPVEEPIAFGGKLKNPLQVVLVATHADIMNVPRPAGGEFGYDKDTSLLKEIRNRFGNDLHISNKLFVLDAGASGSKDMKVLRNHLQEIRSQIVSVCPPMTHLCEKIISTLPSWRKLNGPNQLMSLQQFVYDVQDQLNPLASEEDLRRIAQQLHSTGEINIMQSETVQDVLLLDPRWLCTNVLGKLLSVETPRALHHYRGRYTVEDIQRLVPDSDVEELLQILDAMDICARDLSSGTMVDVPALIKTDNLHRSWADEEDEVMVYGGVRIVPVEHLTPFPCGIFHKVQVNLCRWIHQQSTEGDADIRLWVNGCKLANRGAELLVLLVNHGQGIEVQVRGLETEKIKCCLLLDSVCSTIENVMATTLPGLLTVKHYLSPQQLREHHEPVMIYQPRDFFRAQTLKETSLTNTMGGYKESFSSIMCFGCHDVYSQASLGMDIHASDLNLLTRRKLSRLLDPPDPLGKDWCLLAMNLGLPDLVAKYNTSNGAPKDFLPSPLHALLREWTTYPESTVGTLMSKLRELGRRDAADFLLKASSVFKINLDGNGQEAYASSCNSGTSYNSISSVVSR
Chain of NEK9(h) (Q8TD19 whole entry): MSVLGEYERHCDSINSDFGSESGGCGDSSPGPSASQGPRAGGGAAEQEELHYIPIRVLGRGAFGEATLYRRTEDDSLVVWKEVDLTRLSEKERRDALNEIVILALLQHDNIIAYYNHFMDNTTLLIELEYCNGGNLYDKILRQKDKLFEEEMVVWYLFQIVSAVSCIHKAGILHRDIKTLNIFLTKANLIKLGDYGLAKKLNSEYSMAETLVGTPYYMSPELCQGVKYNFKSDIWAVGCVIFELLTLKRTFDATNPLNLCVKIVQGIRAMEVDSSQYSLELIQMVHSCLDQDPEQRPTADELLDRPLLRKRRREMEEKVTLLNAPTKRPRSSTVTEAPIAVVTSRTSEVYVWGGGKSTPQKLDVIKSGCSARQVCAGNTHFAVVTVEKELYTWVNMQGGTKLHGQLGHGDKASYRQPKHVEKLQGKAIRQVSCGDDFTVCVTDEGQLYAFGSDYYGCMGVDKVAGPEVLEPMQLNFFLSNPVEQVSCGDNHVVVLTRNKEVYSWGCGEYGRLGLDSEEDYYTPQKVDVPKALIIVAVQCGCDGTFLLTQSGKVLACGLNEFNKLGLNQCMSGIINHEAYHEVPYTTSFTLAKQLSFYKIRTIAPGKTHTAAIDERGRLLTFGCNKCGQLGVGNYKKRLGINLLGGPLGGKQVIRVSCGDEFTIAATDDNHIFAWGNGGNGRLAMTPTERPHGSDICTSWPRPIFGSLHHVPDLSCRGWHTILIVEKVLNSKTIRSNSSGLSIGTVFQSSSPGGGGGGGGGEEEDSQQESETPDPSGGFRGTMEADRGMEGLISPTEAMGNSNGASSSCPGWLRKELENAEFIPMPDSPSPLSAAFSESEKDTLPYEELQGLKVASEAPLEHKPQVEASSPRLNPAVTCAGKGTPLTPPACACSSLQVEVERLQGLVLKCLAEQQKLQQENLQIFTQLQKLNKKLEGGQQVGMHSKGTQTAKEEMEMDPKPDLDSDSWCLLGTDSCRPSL
Chain of CaMKK2(h) (Q96RR4 whole entry): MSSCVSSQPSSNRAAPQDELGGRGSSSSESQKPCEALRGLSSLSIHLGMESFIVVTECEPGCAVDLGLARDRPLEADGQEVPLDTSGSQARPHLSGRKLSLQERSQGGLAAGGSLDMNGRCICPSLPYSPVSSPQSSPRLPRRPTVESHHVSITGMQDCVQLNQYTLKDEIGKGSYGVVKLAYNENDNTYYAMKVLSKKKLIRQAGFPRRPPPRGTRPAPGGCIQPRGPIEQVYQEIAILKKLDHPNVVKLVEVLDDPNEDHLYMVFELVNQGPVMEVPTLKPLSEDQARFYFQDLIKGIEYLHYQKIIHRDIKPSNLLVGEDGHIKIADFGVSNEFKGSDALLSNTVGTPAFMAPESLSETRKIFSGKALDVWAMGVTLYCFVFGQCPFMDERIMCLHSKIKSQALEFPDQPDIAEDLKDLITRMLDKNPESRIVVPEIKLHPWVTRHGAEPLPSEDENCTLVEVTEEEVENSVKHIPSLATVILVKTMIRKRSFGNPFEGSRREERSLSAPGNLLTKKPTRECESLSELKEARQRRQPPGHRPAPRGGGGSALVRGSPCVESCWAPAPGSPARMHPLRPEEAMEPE
T10 sequence (Q16644 whole entry): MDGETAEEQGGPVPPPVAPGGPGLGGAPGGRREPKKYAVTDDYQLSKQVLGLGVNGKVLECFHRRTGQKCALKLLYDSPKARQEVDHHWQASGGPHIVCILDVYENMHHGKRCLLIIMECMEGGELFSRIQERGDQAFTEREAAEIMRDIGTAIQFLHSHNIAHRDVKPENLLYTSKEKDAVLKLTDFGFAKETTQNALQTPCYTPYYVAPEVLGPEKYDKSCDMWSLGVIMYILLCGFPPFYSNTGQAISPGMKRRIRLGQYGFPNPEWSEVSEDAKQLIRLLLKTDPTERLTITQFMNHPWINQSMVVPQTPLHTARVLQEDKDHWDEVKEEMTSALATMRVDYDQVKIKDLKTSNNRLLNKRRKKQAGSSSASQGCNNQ
T5 sequence (P68400 whole entry): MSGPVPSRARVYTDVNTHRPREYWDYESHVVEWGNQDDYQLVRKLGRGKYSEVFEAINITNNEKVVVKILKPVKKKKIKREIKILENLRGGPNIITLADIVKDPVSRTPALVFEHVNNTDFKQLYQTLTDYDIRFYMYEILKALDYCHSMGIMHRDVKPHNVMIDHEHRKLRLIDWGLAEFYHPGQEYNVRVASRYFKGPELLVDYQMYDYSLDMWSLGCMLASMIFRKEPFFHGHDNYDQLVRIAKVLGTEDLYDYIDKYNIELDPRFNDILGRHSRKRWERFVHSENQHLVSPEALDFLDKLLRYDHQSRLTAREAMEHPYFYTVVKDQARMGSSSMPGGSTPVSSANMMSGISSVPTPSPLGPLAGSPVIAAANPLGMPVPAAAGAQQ

With `C1=C(c2nc(-c3cnn(C4CCNCC4)c3)cn3cc(-c4ccccc4)nc23)CCOC1` [YL-939] the remaining activity at 10 µM [1] was 87%, the remaining activity at 10 µM [2] was 85% and the remaining activity at 10 µM [3] was 87%. For the same molecule, the remaining activity at 10 µM [4] was 108%, the remaining activity at 10 µM [5] was 99% and the remaining activity at 10 µM [6] was 103%. The remaining activity at 10 µM [7] was 88%, the remaining activity at 10 µM [8] was 119% and the remaining activity at 10 µM [9] was 87%. For the same molecule, the remaining activity at 10 µM [10] was 82%, the remaining activity at 10 µM [11] was 95% and the remaining activity at 10 µM [12] was 90%. For the same molecule, the remaining activity at 10 µM [13] was 87%, the remaining activity at 10 µM [14] was 96% and the remaining activity at 10 µM [15] was 85%. It also gave a remaining activity at 10 µM [16] of 88%, a remaining activity at 10 µM [17] of 83% and a remaining activity at 10 µM [18] of 105%. The remaining activity at 10 µM [19] was 99%, the remaining activity at 10 µM [20] was 111% and the remaining activity at 10 µM [21] was 102%. It also gave a remaining activity at 10 µM [22] of 84%.
